Measured values taken from US9657351B2, “MRNA-based gene expression for personalizing patient cancer therapy with an MDM2 antagonist” (Hoffmann-La Roche Inc., priority 2013, dated 2017).

Experiments:
Test in all cases: COMPOUND A In Vitro Assay
Type in all cases: cell-based
[1] = tested on: NCI-H345; conditions: Homo sapiens, Lung, TP53 Mutant
Description: (§1) To generate an MDM2 antagonist therapy predictive signature, the response of MDM2 antagonist therapy in vitro with gene expression profiling (FIG. 1) is combined. A bank of 287 human cancer cell lines, collectively termed the Cell Lines for Oncology/Chugai ACcumulative Tumour EncycLopedia (CELLO/CACTEL), representing a broad array of diverse human cancer tumor types are subject to evaluation using several high-throughput genomic technology platforms. The mutational status of nucleic acids from each cell line is determined by exome sequencing. Messenger RNA (mRNA) expression levels at baseline, prior to MDM2 antagonist therapy, are obtained via RNA sequencing. MDM2 antagonist therapy COMPOUND A, sometimes referred to herein as RG7112, responses are obtained by assays known to those skilled in the art such as RNA sequencing and microarray measurement using Gene Chip Human Genome U133 Plus 2.0 Array. The MDM2 therapy responses are obtained by high throughout screening assays. Depending on their responses to COMPOUND A these cell lines are classified as either sensitive, defined as IC50<=1, or resistant, defined as IC50>=10.
(§2) 281 cells are treated with MDM2 antagonists and the IC50 (therapy response) is generated. The cell lines span a broad range of tumor cell types of derivation.

[2] = tested on: AsPC-1; conditions: Homo sapiens, ASPC1, Pancreas, TP53 Mutant
Description: as §1, §2

[3] = tested on: NKM-1; conditions: Homo sapiens
Description: as §1, §2

[4] = tested on: SK-OV-3; conditions: Homo sapiens, Ovary, TP53 Mutant
Description: as §1, §2

[5] = tested on: COLO 201; conditions: Homo sapiens, Intestine, large, colon, TP53 Mutant
Description: as §1, §2

[6] = tested on: NCI-H446; conditions: Homo sapiens, Lung, TP53 Mutant
Description: as §1, §2

[7] = tested on: Hs 766T; conditions: Homo sapiens, Hs766T, Pancreas, TP53 Mutant
Description: as §1, §2

[8] = tested on: D-283MED; conditions: Homo sapiens, D283 Med, tissue NA, TP53 Wild type
Description: as §1, §2

[9] = tested on: WERI-Rb-1; conditions: Homo sapiens
Description: as §1, §2

[10] = tested on: NCI-H209; conditions: Homo sapiens, Lung, TP53 Mutant
Description: as §1, §2

[11] = tested on: SKM-1; conditions: Homo sapiens, Lymphocyte, peripheral blood, TP53 Mutant
Description: as §1, §2

[12] = tested on: NCI-H1568; conditions: Homo sapiens, tissue NA, TP53 Mutant
Description: as §1, §2

[13] = tested on: NCI-H1048; conditions: Homo sapiens, Lung, TP53 Mutant
Description: as §1, §2

[14] = tested on: SNU-5; conditions: Homo sapiens, Stomach, TP53 Mutant
Description: as §1, §2

[15] = tested on: SUM-44PE; conditions: Homo sapiens, Breast, TP53 Wild type
Description: as §1, §2

[16] = tested on: KHM-1B; conditions: Homo sapiens, Lymphocyte, TP53 Wild type
Description: as §1, §2

[17] = tested on: NCI-H2029; conditions: Homo sapiens, Lung, TP53 Mutant
Description: as §1, §2

[18] = tested on: HEC-1-A; conditions: Homo sapiens, Uterus, endometrium, TP53 Mutant
Description: as §1, §2

[19] = tested on: SW837; conditions: Homo sapiens, Intestine, large, rectum, TP53 Mutant
Description: as §1, §2

[20] = tested on: HT-1376; conditions: Homo sapiens, Urinary, bladder, TP53 Mutant
Description: as §1, §2

[21] = tested on: HCC366; conditions: Homo sapiens, Lung, TP53 Mutant
Description: as §1, §2

[22] = tested on: EFO-21; conditions: Homo sapiens, Ovary, TP53 Mutant
Description: as §1, §2

[23] = tested on: COLO 320DM; conditions: Homo sapiens, Intestine, large, colon, TP53 Mutant
Description: as §1, §2

[24] = tested on: A-172; conditions: Homo sapiens
Description: as §1, §2

[25] = tested on: LS411N; conditions: Homo sapiens, LS-411N, Intestine, large, caecum, TP53 Mutant
Description: as §1, §2

[26] = tested on: HARA; conditions: Homo sapiens, Lung, TP53 Mutant
Description: as §1, §2

[27] = tested on: SCC-15; conditions: Homo sapiens, Tongue, TP53 Mutant
Description: as §1, §2

[28] = tested on: HCT116; conditions: Homo sapiens, HCT-116, Intestine, large, colon, TP53 Wild type
Description: as §1, §2

[29] = tested on: 143B; conditions: Homo sapiens, Bone, TP53 Mutant
Description: as §1, §2

[30] = tested on: SK-BR-3; conditions: Homo sapiens, Pleura, TP53 Mutant
Description: as §1, §2

[31] = tested on: DMS 114; conditions: Homo sapiens, Lung, TP53 Mutant
Description: as §1, §2

[32] = tested on: NCI-H929; conditions: Homo sapiens, Lymphocyte B, bone marrow, TP53 Wild type
Description: as §1, §2

[33] = tested on: KMS-12-PE; conditions: Homo sapiens, Plasma, TP53 Mutant
Description: as §1, §2

[34] = tested on: MC/CAR; conditions: Homo sapiens
Description: as §1, §2

[35] = tested on: U-87 MG; conditions: Homo sapiens
Description: as §1, §2

[36] = tested on: NCI-H748; conditions: Homo sapiens, Lung, TP53 Mutant
Description: as §1, §2

In the case of `CCOc1cc(C(C)(C)C)ccc1C1=N[C@@](C)(c2ccc(Cl)cc2)[C@@](C)(c2ccc(Cl)cc2)N1C(=O)N1CCN(CCCS(C)(=O)=O)CC1` [COMPOUND A], the IC50 [1] is reported as 17 µM, the IC50 [2] is reported as 19 µM and the IC50 ([3]; NKM-1, Lymphocyte, TP53 Wild type) is reported as 0.32 µM. For the same molecule, the IC50 ([3]; NKM-1 cells) was 0.3 µM, the IC50 [4] was 17 µM and the IC50 [5] was 10 µM. For the same molecule, the IC50 [6] was 18 µM, the IC50 [7] was 17 µM and the IC50 [8] was 1.2 µM. The IC50 ([9]; WERI-Rb-1, Eye, retina, TP53 Wild type) was 0.67 µM, the IC50 ([9]; WERI-Rb-1 cells) was 0.7 µM and the IC50 [10] was 11 µM. The IC50 [11] was 19 µM, the IC50 [12] was 9.6 µM and the IC50 [13] was 9.4 µM. It also gave an IC50 [14] of 16 µM, an IC50 [15] of 3 µM and an IC50 [16] of 6.9 µM. The IC50 [17] was 5.8 µM, the IC50 [18] was 16 µM and the IC50 [19] was 12 µM. The IC50 [20] was 16 µM, the IC50 [21] was 8.7 µM and the IC50 [22] was 31 µM. For the same molecule, the IC50 [23] was 12 µM, the IC50 ([24]; A 172, A-172, Brain, TP53 Wild type) was 0.58 µM and the IC50 ([24]; A 172, A-172 cells) was 0.6 µM. The IC50 [25] was 16 µM, the IC50 [26] was 19 µM and the IC50 [27] was 20 µM. The IC50 [28] was 0.5 µM, the IC50 [29] was 15 µM and the IC50 [30] was 21 µM. The IC50 [31] was 10 µM, the IC50 [32] was 0.3 µM and the IC50 [33] was 5.3 µM. It also gave an IC50 ([34]; MC/CAR cells) of 0.7 µM, an IC50 ([34]; MC/CAR, Lymphocyte B, peripheral blood, TP53 Wild type) of 0.69 µM and an IC50 ([35]; Brain, TP53 Wild type) of 0.18 µM. For the same molecule, the IC50 ([35]; U-87 MG cells) was 0.2 µM and the IC50 [36] was 16 µM.
